Laboratory results from the NIST ThermoML archive (doi:10.1007/s10765-016-2064-y).
± gives the expanded uncertainty stated by the source.

Tests used:
[1] = molar heat capacity at constant pressure; conditions: 101.33 kPa, Liquid, Large sample (1 g) DSC
[2] = 101.33 kPa, Liquid; for speed of sound: Pulse-echo method; for mass density: Pycnometric method

CCCCCCCCCCBr [1-bromodecane]
[1]
Conditions | molar heat capacity at constant pressure [J/K/mol]
298.15 K | 334.38 ± 14
303.15 K | 336.85 ± 14
308.15 K | 339.35 ± 14
313.15 K | 341.85 ± 15
318.15 K | 344.35 ± 15
323.15 K | 346.85 ± 15
328.15 K | 349.35 ± 15
333.15 K | 351.85 ± 15
338.15 K | 354.33 ± 15
343.15 K | 356.83 ± 15
348.15 K | 359.33 ± 15
353.15 K | 361.82 ± 15
358.15 K | 364.32 ± 15
363.15 K | 366.82 ± 16
368.15 K | 369.32 ± 16
373.15 K | 371.8 ± 16
378.15 K | 374.3 ± 16
383.15 K | 376.8 ± 16
388.15 K | 379.3 ± 16
393.15 K | 381.8 ± 16
398.15 K | 384.3 ± 16
403.15 K | 386.8 ± 16
408.15 K | 389.27 ± 17
413.15 K | 391.77 ± 17
418.15 K | 394.27 ± 17
423.15 K | 396.77 ± 17

CCCCCCCCCCCCBr [1-bromododecane]
[1]
Conditions | molar heat capacity at constant pressure [J/K/mol]
298.15 K | 399.29 ± 17
303.15 K | 402.38 ± 17
308.15 K | 405.47 ± 17
313.15 K | 408.56 ± 17
318.15 K | 411.65 ± 17
323.15 K | 414.75 ± 18
328.15 K | 417.84 ± 18
333.15 K | 420.93 ± 18
338.15 K | 424.02 ± 18
343.15 K | 427.11 ± 18
348.15 K | 430.2 ± 18
353.15 K | 433.26 ± 18
358.15 K | 436.35 ± 19
363.15 K | 439.44 ± 19
368.15 K | 442.53 ± 19
373.15 K | 445.62 ± 19
378.15 K | 448.72 ± 19
383.15 K | 451.81 ± 19
388.15 K | 454.9 ± 19
393.15 K | 457.99 ± 19
398.15 K | 461.08 ± 20
403.15 K | 464.14 ± 20
408.15 K | 467.23 ± 20
413.15 K | 470.32 ± 20
418.15 K | 473.41 ± 20
423.15 K | 476.5 ± 20

CCCCCCCBr [1-bromoheptane]
[1]
Conditions | molar heat capacity at constant pressure [J/K/mol]
298.15 K | 249.39 ± 11
303.15 K | 251.24 ± 11
308.15 K | 253.07 ± 11
313.15 K | 254.91 ± 11
318.15 K | 256.75 ± 11
323.15 K | 258.58 ± 11
328.15 K | 260.43 ± 11
333.15 K | 262.27 ± 11
338.15 K | 264.1 ± 11
343.15 K | 265.94 ± 11
348.15 K | 267.77 ± 11
353.15 K | 269.61 ± 11
358.15 K | 271.46 ± 12
363.15 K | 273.29 ± 12
368.15 K | 275.13 ± 12
373.15 K | 276.98 ± 12
378.15 K | 278.8 ± 12
383.15 K | 280.65 ± 12
388.15 K | 282.47 ± 12
393.15 K | 284.32 ± 12
398.15 K | 286.16 ± 12
403.15 K | 287.99 ± 12
408.15 K | 289.83 ± 12
413.15 K | 291.68 ± 12
418.15 K | 293.51 ± 12
423.15 K | 295.35 ± 13

CCCCCCBr [1-bromohexane]
[1]
Conditions | molar heat capacity at constant pressure [J/K/mol]
298.15 K | 219.66 ± 9.3
303.15 K | 221.28 ± 9.4
308.15 K | 222.9 ± 9.5
313.15 K | 224.51 ± 9.5
318.15 K | 226.13 ± 9.6
323.15 K | 227.77 ± 9.7
328.15 K | 229.38 ± 9.7
333.15 K | 231 ± 9.8
338.15 K | 232.62 ± 9.9
343.15 K | 234.24 ± 9.9
348.15 K | 235.87 ± 10
353.15 K | 237.49 ± 10
358.15 K | 239.11 ± 10
363.15 K | 240.72 ± 10
368.15 K | 242.34 ± 10
373.15 K | 243.96 ± 10
378.15 K | 245.59 ± 10
383.15 K | 247.21 ± 10
388.15 K | 248.83 ± 11
393.15 K | 250.45 ± 11
398.15 K | 252.06 ± 11
403.15 K | 253.68 ± 11
408.15 K | 255.32 ± 11
413.15 K | 256.93 ± 11
418.15 K | 258.55 ± 11
423.15 K | 260.17 ± 11

CCCCCCCCCBr [1-bromononane]
[1]
Conditions | molar heat capacity at constant pressure [J/K/mol]
298.15 K | 308.3 ± 13
303.15 K | 310.56 ± 13
308.15 K | 312.82 ± 13
313.15 K | 315.1 ± 13
318.15 K | 317.36 ± 13
323.15 K | 319.61 ± 14
328.15 K | 321.87 ± 14
333.15 K | 324.15 ± 14
338.15 K | 326.41 ± 14
343.15 K | 328.67 ± 14
348.15 K | 330.92 ± 14
353.15 K | 333.2 ± 14
358.15 K | 335.46 ± 14
363.15 K | 337.72 ± 14
368.15 K | 339.98 ± 14
373.15 K | 342.26 ± 15
378.15 K | 344.51 ± 15
383.15 K | 346.77 ± 15
388.15 K | 349.03 ± 15
393.15 K | 351.31 ± 15
398.15 K | 353.57 ± 15
403.15 K | 355.82 ± 15
408.15 K | 358.08 ± 15
413.15 K | 360.36 ± 15
418.15 K | 362.62 ± 15
423.15 K | 364.88 ± 15

CCCCCCCCBr [1-bromooctane]
[1]
Conditions | molar heat capacity at constant pressure [J/K/mol]
298.15 K | 272.15 ± 12
303.15 K | 274.7 ± 12
308.15 K | 277.25 ± 12
313.15 K | 279.8 ± 12
318.15 K | 282.35 ± 12
323.15 K | 284.92 ± 12
328.15 K | 287.47 ± 12
333.15 K | 290.02 ± 12
338.15 K | 292.56 ± 12
343.15 K | 295.11 ± 13
348.15 K | 297.66 ± 13
353.15 K | 300.23 ± 13
358.15 K | 302.78 ± 13
363.15 K | 305.33 ± 13
368.15 K | 307.88 ± 13
373.15 K | 310.43 ± 13
378.15 K | 313 ± 13
383.15 K | 315.55 ± 13
388.15 K | 318.1 ± 13
393.15 K | 320.64 ± 14
398.15 K | 323.19 ± 14
403.15 K | 325.76 ± 14
408.15 K | 328.31 ± 14
413.15 K | 330.86 ± 14
418.15 K | 333.41 ± 14
423.15 K | 335.96 ± 14

CCCCCCCCCCCBr [1-bromoundecane]
[1]
Conditions | molar heat capacity at constant pressure [J/K/mol]
298.15 K | 373.22 ± 16
303.15 K | 375.72 ± 16
308.15 K | 378.21 ± 16
313.15 K | 380.7 ± 16
318.15 K | 383.19 ± 16
323.15 K | 385.69 ± 16
328.15 K | 388.18 ± 16
333.15 K | 390.67 ± 17
338.15 K | 393.17 ± 17
343.15 K | 395.66 ± 17
348.15 K | 398.15 ± 17
353.15 K | 400.62 ± 17
358.15 K | 403.12 ± 17
363.15 K | 405.61 ± 17
368.15 K | 408.1 ± 17
373.15 K | 410.6 ± 17
378.15 K | 413.09 ± 18
383.15 K | 415.58 ± 18
388.15 K | 418.08 ± 18
393.15 K | 420.57 ± 18
398.15 K | 423.06 ± 18
403.15 K | 425.56 ± 18
408.15 K | 428.02 ± 18
413.15 K | 430.52 ± 18
418.15 K | 433.01 ± 18
423.15 K | 435.5 ± 18

CCCCCCCCCCCCCCBr [1-tetradecyl bromide]
Conditions | mass density, [2] [kg/m3] | molar heat capacity at constant pressure, [1] [J/K/mol] | speed of sound, [2] [m/s]
298.15 K | 1012.2 ± 1.2 | 450.84 ± 19 | 1277.2 ± 3.3
303.15 K | 1008.1 ± 1.2 | 454.08 ± 19 | 1260.6 ± 3.3
308.15 K | 1003.9 ± 1.2 | 457.3 ± 19 | 1244.1 ± 3.3
313.15 K | 999.8 ± 1.2 | 460.54 ± 20 | 1227.9 ± 3.2
318.15 K | 995.7 ± 1.2 | 463.79 ± 20 | 1211.9 ± 3.2
323.15 K | 991.6 ± 1.2 | 467.03 ± 20 | 1196 ± 3.2
328.15 K | 987.4 ± 1.2 | 470.27 ± 20 | 1180.4 ± 3.2
333.15 K | 983.3 ± 1.2 | 473.52 ± 20 | 1164.9 ± 3.1
338.15 K | 979.1 ± 1.3 | 476.73 ± 20 | 1149.6 ± 3.1
343.15 K | 974.9 ± 1.3 | 479.98 ± 20 | 1134.5 ± 3.1
348.15 K | 970.8 ± 1.3 | 483.22 ± 20 | 1119.5 ± 3.1
353.15 K | 966.6 ± 1.3 | 486.47 ± 21 | 1104.6 ± 3
358.15 K | 962.4 ± 1.3 | 489.71 ± 21 | 1089.9 ± 3
363.15 K | 958.2 ± 1.3 | 492.93 ± 21 | 1075.3 ± 3
368.15 K | 954 ± 1.3 | 496.17 ± 21 | 1060.9 ± 3
373.15 K | 949.8 ± 1.3 | 499.42 ± 21 | 1046.5 ± 3
378.15 K | 945.6 ± 1.3 | 502.66 ± 21 | 1032.3 ± 2.9
383.15 K | 941.3 ± 1.3 | 505.9 ± 21 | 1018.2 ± 2.9
388.15 K | 937.1 ± 1.3 | 509.15 ± 22 | 1004.2 ± 2.9
393.15 K | 932.9 ± 1.3 | 512.37 ± 22 | 990.2 ± 2.9
398.15 K | 928.6 ± 1.3 | 515.61 ± 22 | 976.4 ± 2.9
403.15 K | 924.4 ± 1.3 | 518.85 ± 22 | 962.6 ± 2.8
408.15 K | 920.1 ± 1.3 | 522.1 ± 22 | 948.9 ± 2.8
413.15 K | 915.9 ± 1.3 | 525.34 ± 22 | 935.3 ± 2.8
418.15 K | 911.6 ± 1.3 | 528.56 ± 22 | 921.7 ± 2.8
423.15 K | 907.4 ± 1.3 | 531.8 ± 23 | 908.1 ± 2.8
